Tests used:
[1] = target: T1, human CRTH2 receptor (Homo sapiens, UniProt Q9Y5Y4); test: Receptor binding assay, competition with [3H]PGD2 on whole transfected cells; settings: competition with 0.1 nM [3H]PGD2, whole cells expressing CRTH2
T1 construct: expressed in transfected cells; host or cells: COS-7 cells, transient transfection (calcium phosphate)
T1 sequence (Q9Y5Y4 1-395): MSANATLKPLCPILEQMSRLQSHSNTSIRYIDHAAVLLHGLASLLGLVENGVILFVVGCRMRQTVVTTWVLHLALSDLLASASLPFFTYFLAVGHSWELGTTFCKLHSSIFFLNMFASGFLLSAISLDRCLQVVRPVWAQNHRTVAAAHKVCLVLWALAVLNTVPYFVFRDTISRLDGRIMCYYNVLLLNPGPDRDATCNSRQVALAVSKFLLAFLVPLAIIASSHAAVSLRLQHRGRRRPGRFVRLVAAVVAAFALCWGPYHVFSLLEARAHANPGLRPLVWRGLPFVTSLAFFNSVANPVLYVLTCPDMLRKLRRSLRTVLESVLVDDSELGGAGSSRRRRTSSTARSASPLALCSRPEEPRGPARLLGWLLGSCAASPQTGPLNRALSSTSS
Source text: (§1) Generation/origin of the cDNA Constructs. The coding sequence of the human CRTH2 receptor (genbank accession no NM_004778) was amplified by PCR from a human hippocampus cDNA library and inserted into the pcDNA3.1(+) expression vector (invitrogen) via 5′ HindIII and 3′ EcoRI. To generate a CRTH2-Renilla luciferase (CRTH2-Rluc) fusion protein, the CRTH2 coding sequence without a STOP codon and Rluc were amplified, fused in frame by PCR and subcloned into the pcDNA3.1(+)Zeo expression vector (invitrogen). Human β-arrestin2 (β-arr2) N-terminally tagged with GFP^2 (βarr2-GFP^2) and Renilla luciferase were purchased from BioSignal Packard Inc, (Montreal, Canada). The sequence identity of the construct was verified by restriction endonuclease digests and sequencing in both directions on an ABI Prism (Applied Biosystems, Foster City, Calif.).
(§2) Cell Culture and Transfection. COS-7 cells were grown in Dulbecco's modified Eagle's medium (DMEM) 1885 supplemented with 10% fetal bovine serum, 100 units/ml penicillin, […], and kept at 37° C. in a 10% CO2 atmosphere. HEK293 cells were maintained in Minimum Essential medium (MEM) supplemented with 10% (v/v) heat inactivated fetal calf serum (HIFCS), 2 mM Glutamax™-I, 1% non essential amino acids (NEAA), 1% sodium pyruvate and 10 μg/ml gentamicin. For binding experiments, COS7 cells were transiently transfected with the CRTH2 receptor using a calcium phosphate-DNAcoprecipitation method with the addition of chloroquine (as described by Holst et al., 2001↓). To perform the functional Bioluminescence Resonance Energy Transfer (BRET) assays, a HEK293 cell clone stably expressing Parr2-GFP^2 and CRTH2-Rluc was generated (CRTH2-HEK293 cells).
Binding assay. 24 h after transfection COS-7 cells were seeded into 96 well plates at a density of 30.000 cells/well. Competition binding experiments on whole cells were then performed about 18-24 h later using 0.1 nM [^3H]PGD2 (NEN, 172 Ci/mmol) in a binding buffer consisting of HBSS (GIBCO) and 10 mM HEPES. Competing ligands were diluted in DMSO which was kept constant at 1% (v/v) of the final incubation volume. Total and nonspecific binding were determined in the absence and presence of 10 μM PGD2. Binding reactions were routinely conducted for 3 h at 4° C. and terminated by 2 washes (100 μl each) with ice cold binding buffer. Radioactivity was determined by liquid scintillation counting in a TOPCOUNTER (Packard) following over night incubation in Microscint 20. Stable HEK293 cells were seeded at a density of 30.000 cells/well 18-24 h prior to the binding assay which was performed essentially as described for COS7 cells above. Determinations were made in duplicates.
(§3) Curve analysis was performed with the GraphPadPrism software 3.0 (Graphpad Prism Inc., San Diego, USA) and IC50 values were calculated as a measure of the antagonistic potencies.

[2] = target: T2, human CRTH2-Rluc (Homo sapiens, UniProt Q9Y5Y4); test: Functional antagonist BRET assay (CRTH2-Rluc / GFP2-β-arrestin2 in HEK293 cells); type: cell-based; settings: HEK293 cells stably expressing CRTH2-Rluc and GFP2-β-arr2, read-out: Antag. IC50
T2 construct: expressed in transfected cells; host or cells: HEK293 cell clone stably expressing βarr2-GFP2 and CRTH2-Rluc
T2 sequence (Q9Y5Y4 1-395): T1 sequence (Q9Y5Y4 1-395)
Source text: as §1, §2
BRET assay. Functional BRET assays were performed on HEK293 cells stably expressing human CRTH2-Rluc and GFP^2-β-arr2. Prior to their use in the BRET assay cells were detached and re-suspended in D-PBS with 1000 mg/L L-Glucose at a density of 2×10^6 cells/mL. DeepBlueC™ was diluted to 50 μM in D-PBS with 1000 mg/L L-Glucose (light sensitive). 100 μL of cell suspension was transferred to wells in a 96-well microplate (white OptiPlate) and placed in the Mithras LB 940 instrument (BERTHOLD TECHNOLOGIES, Bad Wildbad, Germany). 12 μL/well agonist was then injected by injector 1 and 10 μL/well DeepBlueC™ was injected simultaneously by injector 2. Five seconds after the injections the light output from the well was measured sequentially at 400 nm and 515 nm, and the BRET signal (mBRET ratio) was calculated by the ratio of the fluorescence emitted by GFP^2-β-arr2 (515 nm) over the light emitted by the receptor-Rluc (400 nm). Antagonists were added before placing the microplates into the Mithras LB 940 and allowed to incubate for 15 minutes prior to the addition of agonist and DeepBlueC™. Compounds were dissolved in DMSO and the final DMSO concentration was kept constant at 1% in the assay.
as §3

IC50 [1]	IC50 [2]	SMILES
< 500 nM	< 500 nM	COC(=O)N1CCC(c2ccccc2)(c2noc(-c3cc(Br)ccc3OCC(=O)O)n2)CC1 [Example D16, 4-[5-(5-Bromo-2-carboxymethoxy-phenyl)-[1,2,4]oxadiazol-3-yl]-4-phenyl-piperidine-1-carboxylic acid methyl ester]
< 500 nM	< 500 nM	CC(=O)N1CCC(c2ccccc2)(c2noc(-c3cc(Br)ccc3OCC(=O)O)n2)CC1 [Example D2, {2-[3-(1-Acetyl-4-phenyl-piperidin-4-yl)-[1,2,4]oxadiazol-5-yl]-4-bromo-phenoxy}-acetic acid]
< 500 nM	< 500 nM	O=C(O)COc1ccc(Br)cc1-c1nc(C2(c3ccc(F)cc3)CC2)no1 [Example D6, (4-Bromo-2-{3-[1-(4-fluoro-phenyl)-cyclopropyl]-[1,2,4]oxadiazol-5-yl}-phenoxy)-acetic acid]
< 500 nM	< 500 nM	O=C(O)COc1ccc(Br)cc1-c1nc(C2(c3c(Cl)cccc3Cl)CC2)no1 [Example D13, (4-Bromo-2-{3-[1-(2,6-dichloro-phenyl)-cyclopropyl]-[1,2,4]oxadiazol-5-yl}-phenoxy)-acetic acid]
< 500 nM	< 500 nM	O=C(O)COc1ccc(Br)cc1-c1nc(C2(c3ccc(Cl)cc3Cl)CC2)no1 [Example D9, (4-Bromo-2-{3-[1-(2,4-dichloro-phenyl)-cyclopropyl]-[1,2,4]oxadiazol-5-yl}-phenoxy)-acetic acid]
< 500 nM	< 500 nM	CCC(=O)N1CCC(c2ccccc2)(c2noc(-c3cc(Br)ccc3OCC(=O)O)n2)CC1 [Example D7, {4-Bromo-2-[3-(4-phenyl-1-propionyl-piperidin-4-yl)-[1,2,4]oxadiazol-5-yl]-phenoxy}-acetic acid]
< 500 nM	< 500 nM	O=C(O)COc1ccc(Br)cc1-c1nc(C2(c3ccccc3)CC2)no1 [Example D1, {4-Bromo-2-[3-(1-phenylcyclopropyl)-[1,2,4]oxadiazol-5-yl]phenoxy}acetic acid]
< 500 nM	< 500 nM	O=C(O)COc1ccc(Br)cc1-c1nc(C2(c3ccccc3)CCN(C(=O)C3CC3)CC2)no1 [Example D12, {4-Bromo-2-[3-(1-cyclopropanecarbonyl-4-phenyl-piperidin-4-yl)-[1,2,4]oxadiazol-5-yl]-phenoxy}-acetic acid]
< 500 nM	< 500 nM	O=C(O)COc1ccc(Br)cc1-c1nc(C(c2ccc(F)cc2)N2CCS(=O)(=O)CC2)no1 (stereo not drawn) [Example D20, (4-Bromo-2-{3-[(1,1-dioxo-1lambda*6*-thiomorpholin-4-yl)-(4-fluoro-phenyl)-methyl]-[1,2,4]oxadiazol-5-yl}-phenoxy)-acetic acid]
< 500 nM	< 500 nM	O=C(O)COc1ccc(Br)cc1-c1nc(C(c2ccccc2)N2CCOCC2)no1 (stereo not drawn) [Example D4]
< 500 nM	< 500 nM	O=C(O)COc1ccc(Br)cc1-c1nc(C2(c3ccccc3)CCCCC2)no1 [Example D3, {4-Bromo-2-[3-(1-phenyl-cyclohexyl)-[1,2,4]oxadiazol-5-yl]-phenoxy}-acetic acid]
< 500 nM	500 to 5000 nM	O=C(O)COc1ccc(Br)cc1-c1nc(C2(c3ccccc3)CCNCC2)no1 [Example D5, {4-Bromo-2-[3-(4-phenyl-piperidin-4-yl)-[1,2,4]oxadiazol-5-yl]-phenoxy}-acetic acid]
< 500 nM	< 500 nM	O=C(O)COc1ccc(Br)cc1-c1nc(C2(c3ccccc3)CCN(S(=O)(=O)C3CC3)CC2)no1 [Example D15, {4-Bromo-2-[3-(1-cyclopropanesulfonyl-4-phenyl-piperidin-4-yl)-[1,2,4]oxadiazol-5-yl]-phenoxy}-acetic acid]
< 500 nM	< 500 nM	CC(C)C(=O)N1CCC(c2ccccc2)(c2noc(-c3cc(Br)ccc3OCC(=O)O)n2)CC1 [Example D8, {4-Bromo-2-[3-(1-isobutyryl-4-phenyl-piperidin-4-yl)-[1,2,4]oxadiazol-5-yl]-phenoxy}-acetic acid]
< 500 nM	< 500 nM	CS(=O)(=O)N1CCC(c2ccc(F)cc2)(c2noc(-c3cc(Br)ccc3OCC(=O)O)n2)CC1 [Example D19, (4-Bromo-2-{3-[4-(4-fluoro-phenyl)-1-methanesulfonyl-piperidin-4-yl]-[1,2,4]oxadiazol-5-yl}-phenoxy)-acetic acid]
< 500 nM	< 500 nM	C[C@H](Oc1ccc(Br)cc1-c1nc(C2(c3ccc(F)cc3)CC2)no1)C(=O)O [Example D21, (S)-2-(4-Bromo-2-{3-[1-(4-fluoro-phenyl)-cyclopropyl]-[1,2,4]oxadiazol-5-yl}-phenoxy)-propionic acid]
< 500 nM	< 500 nM	CS(=O)(=O)N1CCC(c2ccccc2)(c2noc(-c3cc(Br)ccc3OCC(=O)O)n2)CC1 [Example D10, {4-Bromo-2-[3-(1-methanesulfonyl-4-phenyl-piperidin-4-yl)-[1,2,4]oxadiazol-5-yl]-phenoxy}-acetic acid]
< 500 nM	< 500 nM	O=C(O)COc1ccc(Br)cc1-c1nc(C2(c3ccccc3)CCN(C(=O)CO)CC2)no1 [Example D18, (4-Bromo-2-{3-[1-(2-hydroxy-acetyl)-4-phenyl-piperidin-4-yl]-[1,2,4]oxadiazol-5-yl}-phenoxy)-acetic acid]
< 500 nM	< 500 nM	O=C(O)COc1ccc(Br)cc1-c1nc(C2(c3ccccc3)CCC2)no1 [Example D14, {4-Bromo-2-[3-(1-phenyl-cyclobutyl)-[1,2,4]oxadiazol-5-yl]-phenoxy}-acetic acid]

SMILES	IC50 [1]	IC50 [2]
CN1CCC(c2ccccc2)(c2noc(-c3cc(Br)ccc3OCC(=O)O)n2)CC1 [Example D11, {4-Bromo-2-[3-(1-methyl-4-phenyl-piperidin-4-yl)-[1,2,4]oxadiazol-5-yl]-phenoxy}-acetic acid]	< 500 nM	< 500 nM
CC(=O)OCC(=O)N1CCC(c2ccccc2)(c2noc(-c3cc(Br)ccc3OCC(=O)O)n2)CC1 [Example D17, (2-{3-[1-(2-Acetoxy-acetyl)-4-phenyl-piperidin-4-yl]-[1,2,4]oxadiazol-5-yl}-4-bromo-phenoxy)-acetic acid]	< 500 nM	< 500 nM

Source: patent US20080312220A1, “Oxadiazole Derivatives with Crth2 Receptor Activity” (priority 2005, published 2008)
